From article PMC4913735, “Non‐glycosidic compounds can stimulate both human and mouse iNKT cells” (European Journal of Immunology, 2016)

Legend:
[1] = tested on: NK cells; test: In vivo transactivation of NK cells (intracellular IFN‐γ, CD69) by flow cytometry; design: species or system mice; details: 1 μg i.v.; splenocytes at 12, 24 or 33 h
Description: Supplementary file EJI-46-1224-s001.pdf: Figure S1. […] Mice were immunized i.v. with 1 μg of lipids and splenocytes stained with anti‐CD11c and anti‐CD40 mAb to determine the extent of maturation by the expression of CD40 on gated DCs (CD11c+ cells) using flow cytometry. (n=3/group) Median Fluorescent Intensity=MFI. Error bars are mean ± SEM. Figure S2. IFN‐γ in serum of mice injected intramuscularly (i.m.) with iNKT cell agonists. C57BL/6 mice (n=4) or syngeneic CD1d knockout Mice (n=2) were injected intramuscularly with α‐GalCer, ThrCer 6 or vehicle. 18 hours later blood samples were tested for IFN‐γ using ELISA. As controls, mice (n=2) were injected intravenously with α‐GalCer or ThrCer 6. Error bars are mean ±SEM. one of two experiment is shown *p=0.0114. Figure S3. Transactivation of NK cells using non‐glycosidic analogues. Mice were immunized i.v. with 1 μg of lipids and sacrificed at 12 h, 24 h or 33 h post injection (n=3/group). Splenocytes were assessed by flow cytometry for the transactivation of NK cells (DX5+NK1.1+CD3‐ cells) using (B) the surface activation marker, CD69, or (A) intracellular IFN‐γ staining. Error bars are mean ± SEM. *p < 0.05. Representative of two independent experiments Figure S4. […] Data relating to numbers of ovalbumin specific T cells was analysed using the following gating stratagy: From top left to right and then bottom left to right. […]

[2] = tested on: OVA‐specific CD8+ T cells; test: OVA‐specific CD8+ T‐cell response after OVA plus lipid i.v. (H‐2Kb/OVA257–264 tetramer); type: in vivo, mice
Description: In order to assess the downstream effect of treatment with low concentrations of lipid in vivo, mice were injected with the model antigen OVA together with two different doses of ThrCer 6 and α‐GalCer. Seven days later, OVA‐specific CD8^+ T cells were detected in the blood by H‐2 K^b/OVA257–264 tetramer staining of CD8^+ T cells.
(A and B) Mice were given 400 μg OVA together with i.v. injection of vehicle or 10 or 750 ng of either α‐GalCer or ThrCer 6. OVA‐specific CD8^+ T cells were enumerated in the blood using tetrameric H‐2K^b/OVA257–264 flow cytometry at (A) day 7 and at (B) day 12. Each square or circle represents the data for a single mouse (n = 4–6/group). Data shown as mean ± SEM and are representative of three independent experiments. **p = 0.0012, *p = 0.0114; Student's t‐test.
Mice were bled on day 7 post immunization of lipids and peripheral blood lymphocytes (PBL) stained with tetrameric H‐2 K^b/OVA257–264 peptide complexes, as previously described 27. A representative tetramer staining is shown in Supporting Information Figure 4.

[3] = tested on: iNKT hybridoma DN32.D3; test: Lipid‐pulsed, washed BMDC stimulation of iNKT hybridoma DN32.D3 (IL‐2); type: cell-based, mouse; details: 10 and 1 ng agonist; up to 24 h after wash; compared with α‐GalCer
Description: The difference between the functional activity of ThrCer 6 and α‐GalCer, particularly noticeable at low concentrations, may be accounted for by differences in their bioavailability. To address this possibility, bone marrow (BM) derived DC were incubated with a range of different iNKT‐cell agonists at different concentrations overnight, then washed and incubated with fresh media for increasing lengths of time. Lipid‐pulsed DC were then used to stimulate the iNKT‐hybridoma DN32.D3 (Fig. 6A). […] The difference between the ThrCer 6 and ThrCer 7 analogs and α‐GalCer started to be evident as early as 3 h after lipid‐pulsed DC were washed (Fig. 6A).
Figure 6 Enhanced bioavailability of ThrCer 6 as compared to ThrCer and α‐GalCer. (A) Mouse BMDCs were pulsed for 6 h with 100, 10, or 1 ng/mL of indicated iNKT‐cell agonists. […] Diminished bioavailability is expressed as a percentage of the maximum DN32.D3 activation by each iNKT‐cell agonist. […] (B) IL‐2 in the supernatant from coculture of DN32.D3 with CD11c^+ cells isolated after 64 h was determined by ELISA. […] Significance was calculated between α‐GalCer and ThrCer 6. *p < 0.05, **p < 0.01, ***p < 0.001, ****p < 0.0001; Student's t‐test.
Levels of iNKT‐cell agonists, presented by CD1d on the surface of cells, were assessed by the amount of IL‐2 secreted by iNKT hybridoma DN32.D3 coincubated with the presenting cells for 17–24 h. […]

[4] = tested on: iNKT hybridoma DN32.D3; test: CD11c+ splenocytes from lipid‐injected Jα18 knockout mice stimulating DN32.D3 (IL‐2 ELISA); type: in vivo; details: 1 μg i.v.; for Decline in stimulation of DN32.D3 by CD11c+ cells, 64 h compared with 12 h post injection: Jα18 knockout mice, IL‐2
Description: Figure 6 Enhanced bioavailability of ThrCer 6 as compared to ThrCer and α‐GalCer. (A) Mouse BMDCs were pulsed for 6 h with 100, 10, or 1 ng/mL of indicated iNKT‐cell agonists. Cells were washed and suspended in tissue culture medium in the absence of iNKT‐cell agonists for up to 24 h. Washed BMDCs were then cocultured with the murine iNKT cell hybridoma DN32.D3. Hundred percentage activation was defined for each iNKT‐cell agonist as the IL‐2 produced by DN32.D3 cocultured with BMDCs that were left with iNKT‐cell agonists throughout the pre coculture period (30 h). Diminished bioavailability is expressed as a percentage of the maximum DN32.D3 activation by each iNKT‐cell agonist. Number of replicates = 4. (B and C) Jα18 knockout mice were injected i.v. with 1 μg of ThrCer 6, α‐GalCer, or vehicle. Twelve hours or 64 h later, CD11c^+‐purified cells were cocultured with 5 × 10^4 DN32.D3 at different ratios. (B) IL‐2 in the supernatant from coculture of DN32.D3 with CD11c^+ cells isolated after 64 h was determined by ELISA. (C) IL‐2 levels of the same culture as percentage of the IL‐2 produced by DN32.D3 coincubated with CD11c^+ cells isolated 12 h after injection of lipids. […] Significance was calculated between α‐GalCer and ThrCer 6. *p < 0.05, **p < 0.01, ***p < 0.001, ****p < 0.0001; Student's t‐test.
To rule out the possibility that the results of these experiments could be modulated by the in vivo killing of CD11c^+ cells by iNKT cells, Jα18 knockout mice, lacking iNKT cells, were injected with ThrCer 6, α‐GalCer or vehicle, and then culled 12 or 64 h later. CD11c^+ cells enriched from the spleens were then coincubated with DN32.D3 for 17 h and IL‐2 production was measured in the supernatant (Fig. 6B and C).
Levels of iNKT‐cell agonists, presented by CD1d on the surface of cells, were assessed by the amount of IL‐2 secreted by iNKT hybridoma DN32.D3 coincubated with the presenting cells for 17–24 h. […] Levels of IL‐2 in the supernatant were determined by ELISA. iNKT‐cell hybridoma DN32.D3 was kindly provided by A. Bendelac 45.

Row | Decline in stimulation of DN32.D3 by CD11c+ cells, 64 h compared with 12 h post injection [4] | Activation of DN32.D3 by splenic CD11c+ cells 64 h after in vivo injection ([4]; compared with α‐GalCer‐injected mice) | Structure (SMILES) | Transactivation of NK cells (intracellular IFN‐γ, CD69) [1] | Frequency of OVA‐specific CD8+ T cells, 10 ng lipid ([2]; 10 ng i.v. with 400 μg OVA, day 7, compared with 10 ng α‐GalCer) | Frequency of OVA‐specific CD8+ T cells, 10 ng lipid, day 12 ([2]; 10 ng i.v. with OVA, day 12, higher frequency than α‐GalCer) | Activation of DN32.D3 by lipid‐pulsed, washed BMDC [3]
1 | less than 50% | more potent activators of DN32.D3 cells | CCCCCCCCCCCCCCCCCCCCCCCCCC(=O)N[C@@H](CO[C@H]1CC[C@H](O)[C@H](O)[C@H]1O)[C@H](O)[C@H](O)CCCCCCCCCCCCCC [ThrCer 6] | comparable transactivation of NK cells | statistically significant higher frequency | persisted at day 12 | enhanced ability to activate DN32.D3
2 | more than 90% |  | CCCCCCCCCCCCCCCCCCCCCCCCCC(=O)N[C@@H](CO[C@H]1O[C@H](CO)[C@H](O)[C@H](O)[C@H]1O)[C@H](O)[C@H](O)CCCCCCCCCCCCCC [α‐GalCer, α‐galactosylceramide, reference compound] | comparable transactivation of NK cells |  |  | 
